Assay results published in patent US20240365781A1, “SYNERGISTICALLY EFFECTIVE HERBICIDE COMPOSITION COMPRISING PELARGONIC ACID AND FLAZASULFURON” (Belchim Crop Protection NV, priority 2017, published 2024).

Experiments:
Test in all cases: post-emergence test, field trial (Examples 1-5)
Format in all cases: in vivo
Echinochloa crusgalli = conditions: FT
Text: (§1) The expected activity of a given combination of two or three herbicides can be calculated as follows according to a calculation method by Colby (cf. COLBY, S. R.: “Calculating synergistic and antagonistic responses of herbicide combinations”, • Weeds 15, pages 20-22, 1967): • If X=% damage by herbicide (A) at an application rate of m g/ha, • Y=% damage by herbicide (B) at an application rate of n g/ha, • E=the expected damage by herbicides (A) and (B) at application rates of m and n […] and, • then for a combination:
(§2) Individual compositions comprising pelargonic acid or flazasulfuron are compared with a herbicide composition according to the invention comprising pelargonic acid and flazasulfuron.
(§3) Herbicidal activity was determined by performing a post-emergence test. […] The corresponding mixture was in the form of a spray liquor. Besides, spray liquors of individual compositions comprising pelargonic acid or flazasulfuron were used.
(§4) Tests were performed on test fields (field trials) or in pots (pot trials).

Digitaria sang = conditions: FT, pelargonic acid 5440 g/ha, flazasulfuron 50 g/ha, 8 L/ha
Text: as §1, §2, §3, §4

Sonchus oleraceus L. = conditions: FT, pelargonic acid 5440 g/ha, flazasulfuron 50 g/ha, 8 L/ha
Text: as §1, §2, §3, §4

Lolium sp. = conditions: 7 d, FT; pelargonic acid 5440 g/ha, flazasulfuron 50 g/ha; 8 L/ha
Text: as §1, §2, §3, §4

Festuca ovina = conditions: FT
Text: as §1, §2, §3, §4

[1] = 3 d, pelargonic acid 5440 g/ha, flazasulfuron 50 g/ha, 8 L/ha
[2] = 3 d, pelargonic acid 10880 g/ha, flazasulfuron 25 g/ha, 16 L/ha
[3] = 3 d, pelargonic acid 21760 g/ha, flazasulfuron 25 g/ha, 32 L/ha
[4] = 7 d, pelargonic acid 5440 g/ha, flazasulfuron 50 g/ha, 8 L/ha
[5] = 7 d, pelargonic acid 10880 g/ha, flazasulfuron 25 g/ha, 16 L/ha
[6] = 7 d, pelargonic acid 10880 g/ha, flazasulfuron 50 g/ha, 16 L/ha
[7] = 7 d, pelargonic acid 21760 g/ha, flazasulfuron 50 g/ha, 32 L/ha
[8] = 12 d, pelargonic acid 5440 g/ha, flazasulfuron 50 g/ha, 8 L/ha
[9] = 13 d, pelargonic acid 10880 g/ha, flazasulfuron 25 g/ha, 16 L/ha
[10] = 13 d, pelargonic acid 10880 g/ha, flazasulfuron 50 g/ha, 16 L/ha
[11] = 13 d, pelargonic acid 21760 g/ha, flazasulfuron 25 g/ha, 32 L/ha
[12] = 13 d, pelargonic acid 21760 g/ha, flazasulfuron 50 g/ha, 32 L/ha
[13] = 23 d, pelargonic acid 10880 g/ha, flazasulfuron 25 g/ha, 16 L/ha
[14] = 23 d, pelargonic acid 10880 g/ha, flazasulfuron 50 g/ha, 16 L/ha
[15] = 23 d, pelargonic acid 21760 g/ha, flazasulfuron 25 g/ha, 32 L/ha
[16] = 23 d, pelargonic acid 21760 g/ha, flazasulfuron 50 g/ha, 32 L/ha
[17] = 26 d, pelargonic acid 5440 g/ha, flazasulfuron 50 g/ha, 8 L/ha
[18] = 30 d, pelargonic acid 10880 g/ha, flazasulfuron 25 g/ha, 16 L/ha
[19] = 30 d, pelargonic acid 21760 g/ha, flazasulfuron 25 g/ha, 32 L/ha
[20] = 38 d, pelargonic acid 10880 g/ha, flazasulfuron 25 g/ha, 16 L/ha
[21] = 38 d, pelargonic acid 21760 g/ha, flazasulfuron 25 g/ha, 32 L/ha
[22] = 72 d, pelargonic acid 5440 g/ha, flazasulfuron 50 g/ha, 8 L/ha
[23] = 7 d, pelargonic acid 21760 g/ha, flazasulfuron 25 g/ha, 32 L/ha

Measured: herbicidal effect

COc1cc(OC)nc(NC(=O)NS(=O)(=O)c2ncccc2C(F)(F)F)n1 [Flazasulfuron, 1-(4,6-dimethoxypyrimidin-2-yl)-3-(3-trifluoromethyl-2-pyridylsulfonyl)urea]
37.3%: Echinochloa crusgalli; [8] | Digitaria sang; 12 d
13.3%: Echinochloa crusgalli; [4] | Digitaria sang; 7 d
96.3%: Echinochloa crusgalli; [22]
30%: Echinochloa crusgalli; [10] | Echinochloa crusgalli; [12] | Festuca ovina; [5] | Festuca ovina; [23] | Festuca ovina; [9] | Festuca ovina; [11]
99%: Echinochloa crusgalli; [17]
90%: Echinochloa crusgalli; [18] | Echinochloa crusgalli; [19] | Echinochloa crusgalli; [20] | Echinochloa crusgalli; [21]
3.8%: Digitaria sang; 72 d
20%: Echinochloa crusgalli; [6] | Echinochloa crusgalli; [7] | Festuca ovina; [6] | Festuca ovina; [7] | Festuca ovina; [10] | Festuca ovina; [12]
2.5%: Echinochloa crusgalli; [1] | Digitaria sang; 3 d | Sonchus oleraceus L.; 13 d | Lolium sp.
12.5%: Sonchus oleraceus L.; 28 d
40%: Echinochloa crusgalli; [5] | Echinochloa crusgalli; [9] | Echinochloa crusgalli; [11] | Echinochloa crusgalli; [13] | Echinochloa crusgalli; [15]
75%: Festuca ovina; [13] | Festuca ovina; [15] | Festuca ovina; [18] | Festuca ovina; [19]
10%: Sonchus oleraceus L.; 58 d
0%: Echinochloa crusgalli; [2] | Echinochloa crusgalli; [3] | Echinochloa crusgalli; [14] | Echinochloa crusgalli; [16] | Sonchus oleraceus L.; 3 d | Sonchus oleraceus L.; 7 d | Festuca ovina; [2] | Festuca ovina; [3] | Festuca ovina; [14] | Festuca ovina; [16]
80%: Festuca ovina; [20] | Festuca ovina; [21]

CCCCCCCCC(=O)O [Pelargonic acid, nonanoic acid]
10%: Echinochloa crusgalli; [13] | Echinochloa crusgalli; [14] | Echinochloa crusgalli; [15] | Echinochloa crusgalli; [16]
18.8%: Lolium sp.
20%: Festuca ovina; [2] | Festuca ovina; [5] | Festuca ovina; [6] | Festuca ovina; [19]
2.5%: Sonchus oleraceus L.; 3 d
51.3%: Echinochloa crusgalli; [1] | Digitaria sang; 3 d
45%: Echinochloa crusgalli; [2] | Echinochloa crusgalli; [7] | Festuca ovina; [3]
30%: Echinochloa crusgalli; [5] | Echinochloa crusgalli; [6] | Festuca ovina; [23] | Festuca ovina; [7]
30.8%: Echinochloa crusgalli; [4] | Digitaria sang; 7 d
5%: Echinochloa crusgalli; [8] | Digitaria sang; 12 d
3.8%: Sonchus oleraceus L.; 13 d
0%: Echinochloa crusgalli; [9] | Echinochloa crusgalli; [10] | Echinochloa crusgalli; [11] | Echinochloa crusgalli; [12] | Echinochloa crusgalli; [17] | Echinochloa crusgalli; [18] | Echinochloa crusgalli; [19] | Echinochloa crusgalli; [20] | Echinochloa crusgalli; [21] | Echinochloa crusgalli; [22] | Digitaria sang; 72 d | Sonchus oleraceus L.; 58 d | Festuca ovina; [9] | Festuca ovina; [10] | Festuca ovina; [11] | Festuca ovina; [12] | Festuca ovina; [13] | Festuca ovina; [14] | Festuca ovina; [15] | Festuca ovina; [16] | Festuca ovina; [18] | Festuca ovina; [20] | Festuca ovina; [21]
50%: Echinochloa crusgalli; [3]
1.3%: Sonchus oleraceus L.; 7 d | Sonchus oleraceus L.; 28 d
